Several values for one entry are separate records, joined by “and”; a condition that tells them apart may be missing. Equal entries are not always repeated.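 Following 48 hours of exposure in 96-well plates, responses at five concentrations were used to interpolate endpoints linearly. GI50 is the concentration that inhibits growth by half. The concentration for full growth arrest is given as TGI.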
Key:
Assay in all cases: growth of human tumour cells (NCI), 48 h
UACC-62 melanoma = system: UACC-62 melanoma
NCI-H522 lung = system: NCI-H522 lung
CCRF-CEM leukemia = system: CCRF-CEM leukemia
SW-620 colon = system: SW-620 colon
OVCAR-3 ovarian = system: OVCAR-3 ovarian
MALME-3M melanoma = system: MALME-3M melanoma
IGROV1 ovarian = system: IGROV1 ovarian
HS 578T breast = system: HS 578T breast
HOP-92 NSCLC = system: HOP-92 NSCLC
TK-10 renal = system: TK-10 renal

SMILES | GI50 (UACC-62 melanoma) | TGI (UACC-62 melanoma) | GI50 (NCI-H522 lung) | TGI (NCI-H522 lung) | GI50 (CCRF-CEM leukemia) | TGI (CCRF-CEM leukemia) | GI50 (SW-620 colon) | TGI (SW-620 colon) | GI50 (OVCAR-3 ovarian) | TGI (OVCAR-3 ovarian) | GI50 (MALME-3M melanoma) | TGI (MALME-3M melanoma) | GI50 (IGROV1 ovarian) | TGI (IGROV1 ovarian) | GI50 (HS 578T breast) | TGI (HS 578T breast) | GI50 (HOP-92 NSCLC) | TGI (HOP-92 NSCLC) | GI50 (TK-10 renal) | TGI (TK-10 renal)
COc1cc2cc(C(=O)Nc3ccccc3)c(N)nc2cc1OC | 28.6 µM | > 100 µM | 32.7 µM | > 100 µM | 35.9 µM | > 100 µM | > 100000 nM | > 100 µM | 50.9 µM | > 100 µM | 44.3 µM | > 100 µM | 56.3 µM | > 100 µM | 62.8 µM | > 100 µM | 8290 nM | 90.1 µM | 63.5 µM | > 100 µM
C/C=C1/CN2CCC34c5ccccc5N5C(=O)C(C6CC78c9ccccc9N9C(=O)C=CC(C%10CC7N6C/C%10=C/C)C98)=CC(C1CC23)C54 (stereo not drawn) | 10.9 µM | 14.4 µM and 23.6 µM | 8.97 µM | 11 µM and 27.2 µM | 1.6 µM | 2.05 µM and 4.39 µM | 3320 nM | 5.45 µM and 11.8 µM | 10.7 µM | 16.5 µM and 23.5 µM |  | 14.5 µM |  | 18.3 µM | 16.6 µM | 20.9 µM and 73.2 µM | 466 nM | 13.6 µM and 6.71 µM | 22 µM | 14.4 µM and 40.7 µM
Cn1cc(-c2[nH]c3cc(NC(=O)[C@H](N)C4CCCCC4)cc4c3c2C=NNC4=O)cn1 | 0.484 µM and 0.704 µM | 18.7 µM and > 10 µM | 0.352 µM and 0.222 µM | 1.96 µM and 2.77 µM | 0.0345 µM and 0.056 µM | 0.507 µM and > 3.89 µM | 530 nM and 829 nM | 13.6 µM and > 10 µM | 0.229 µM and 0.144 µM | 3.02 µM and 3.73 µM | 2.22 µM and 0.517 µM | 24.7 µM and > 10 µM | 0.603 µM and 0.367 µM | 14.3 µM and > 10 µM | 0.185 µM and 0.247 µM | 2.59 µM and 1.81 µM | 78.3 nM and 200 nM | 0.821 µM and > 4.52 µM | 0.675 µM and 0.467 µM | 12.7 µM and > 10 µM
Cc1cc(C(=O)NOCCO)c(Nc2ccc(I)cc2F)n(C)c1=O | 0.0015 µM and < 0.01 µM | 0.0116 µM and 0.0221 µM | > 10 µM and 13.7 µM | > 100 µM | > 100 µM | > 100 µM | 2.52 nM and < 10 nM | > 100 µM | > 100 µM | > 100 µM | < 0.01 µM | 0.0115 µM and < 0.01 µM | 0.00909 µM and 0.0178 µM | > 100 µM | > 10 µM and 37.2 µM | > 100 µM | 5.85 nM and 23.5 nM | 0.2 µM and 1.04 µM |  | > 100 µM
OC(CBr)C(O)C(O)C(O)CBr (stereo not drawn) | 19.9 µM and 9.75 µM | > 75.4 µM and 65.1 µM |  | > 100 µM |  | > 100 µM |  | > 100 µM |  | 97 µM and > 100 µM |  | > 100 µM | 49.4 µM and > 100 µM | > 100 µM |  | > 100 µM | 35800 nM and > 86800 nM | > 100 µM |  | > 100 µM
Nc1[nH]c(=S)[nH]c(=O)c1N=Nc1c(Br)cc(S(N)(=O)=O)cc1Br |  | > 100 µM |  | > 100 µM |  | > 100 µM |  | > 100 µM |  | > 100 µM |  | > 100 µM |  | > 100 µM |  | > 100 µM |  | > 100 µM |  | > 100 µM
O=C(C#Cc1ccccc1)N1CCCCC1 |  | > 100 µM |  | > 100 µM |  | > 100 µM |  | > 100 µM |  | > 100 µM |  | > 100 µM |  | > 100 µM |  | > 100 µM |  | > 100 µM |  | > 100 µM
CCN(Cc1c(F)cccc1C(F)(F)F)c1ccc(CO)c(Cl)c1 |  | 12.6 µM | 12.6 µM | 27 µM | 15.7 µM | 36.1 µM | 790 nM | 20.4 µM | 0.261 µM | 4.9 µM | 15.2 µM | 30.1 µM | < 0.0338 µM |  | 18.3 µM | 42.1 µM | 856 nM | 16 µM | 0.0682 µM | 0.322 µM
Cc1c(-c2c(F)cc(C(N)=O)c3[nH]c4c(c23)CC[C@H](C(C)(C)O)C4)cccc1-n1c(=O)c2cccc(F)c2n(C)c1=O | 3 µM | > 100 µM | 2.81 µM | 32.9 µM | 4.52 µM | > 100 µM | 2440 nM | > 100 µM | 3.95 µM | > 100 µM | 1.84 µM | 28.2 µM | 3.19 µM | > 100 µM | 4.62 µM | > 100 µM | 1010 nM | 6.94 µM | 2.04 µM | 8.03 µM
CC(=O)OCc1cc[c]([Hg][Cl])o1 | 2.59 µM | 11.3 µM | 0.709 µM | 2.45 µM | 2.08 µM | 8.85 µM | 1600 nM | 3.82 µM | 3.97 µM | 16.2 µM | 1.6 µM | 3.27 µM | 3.14 µM | 10.4 µM | 9.99 µM | 65.6 µM | 2510 nM | 6.36 µM | 2.72 µM | 5.89 µM
N/C(=N/O)NOCCC(N)C(=O)O (stereo not drawn) | > 100 µM | > 100 µM | > 100 µM | > 100 µM | > 100 µM | > 100 µM | > 100000 nM | > 100 µM | > 100 µM | > 100 µM | > 100 µM | > 100 µM | > 100 µM | > 100 µM | > 100 µM | > 100 µM | > 100000 nM | > 100 µM | > 100 µM | > 100 µM
COc1ccc(CC2OC3(CCCCC3)CC3CCCCN32)cc1 (stereo not drawn) |  | > 100 µM |  | > 100 µM |  | > 100 µM |  | > 100 µM |  | > 100 µM |  | > 100 µM |  | > 100 µM |  | > 100 µM |  | > 100 µM |  | > 100 µM
NS(=O)(=O)c1ccc(NC(=O)Nc2cccc3ccccc23)cc1 |  | 69.4 µM |  | 34.9 µM |  | > 100 µM |  | > 100 µM |  | > 100 µM |  | > 100 µM |  | > 100 µM |  | > 100 µM |  | > 100 µM |  | > 100 µM
Nc1ncnc2c1ncn2Cc1ccc(CCl)cc1 | 19.6 µM | 34.6 µM | 24 µM | 51.9 µM | 24.3 µM | > 100 µM | 12800 nM | 30.2 µM | 14.3 µM | 31.7 µM | 19 µM | 43.4 µM | 25.8 µM | 66.5 µM | 25.9 µM | 58.1 µM | 19000 nM | 51.6 µM | 18.1 µM | 65.7 µM
COc1cc(OC)c(OC)cc1/C=C/c1ccc2ccccc2n1 |  | > 10 µM |  | > 10 µM |  | > 10 µM |  | > 10 µM |  | > 10 µM |  | > 10 µM |  | > 10 µM |  | > 10 µM |  | > 10 µM |  | > 10 µM
Oc1ccc(Cl)cc1N=Nc1c(O)ccc2ccccc12 |  | > 100 µM |  | > 100 µM |  | > 100 µM |  | > 100 µM |  | > 100 µM |  | 80.3 µM |  | > 100 µM |  | > 100 µM |  | > 100 µM |  | > 100 µM
COc1ccc(C2CC(=O)Nc3c2c(C)nn3-c2nc3ccccc3[nH]2)cc1OC (stereo not drawn) | 3.15 µM | 12.8 µM | 3.83 µM | 25.6 µM | 1.62 µM | > 96.3 µM | 4860 nM | 49.6 µM | 3.99 µM | 14 µM | 4.94 µM | 29 µM | 4.67 µM | > 93.3 µM | 4.49 µM | > 100 µM | 6010 nM | 35.1 µM | 8.95 µM | 93.5 µM
O=C(O)[C@@H](Cc1ccccc1)NS(=O)(=O)c1ccc(-c2ccccc2)cc1 | > 100 µM | > 100 µM | > 100 µM | > 100 µM | > 100 µM | > 100 µM | > 100000 nM | > 100 µM | > 100 µM | > 100 µM | > 100 µM | > 100 µM | > 100 µM | > 100 µM | > 100 µM | > 100 µM | 24900 nM | > 100 µM | > 100 µM | > 100 µM
S=C1NC(c2ccccc2)NC(c2ccccc2)S1 (stereo not drawn) |  | > 100 µM |  | > 100 µM |  | 8.38 µM |  | > 100 µM |  | > 100 µM |  | > 100 µM |  | > 100 µM |  | > 100 µM |  | > 100 µM |  | > 100 µM
